O=c1c(-c2ccc(O)cc2)coc2cc(O[C@@H]3O[C@H](CO)[C@@H](O)[C@H](O)[C@H]3O)ccc12
solubility (mole fraction)
Settings	283.2 K	293.2 K	303.2 K	313.2 K	323.2 K
in THF	0.000784	0.00182	0.00684	0.0165	0.0417
in acetone	0.000148	0.000241	0.000326	0.000458	0.000553
in acetonitrile	5.77e-06	9e-06	1.4e-05	2e-05	3.3e-05
in chloroform	3.83e-07	8.76e-07	1.6e-06	2.36e-06	3.2e-06
in cyclohexane	1.25e-07	2.95e-07	5.56e-07	1.02e-06	1.37e-06
in ethanol	0.000291	0.000397	0.000499	0.000669	0.000813
in ethyl acetate	5.38e-06	7.88e-06	1.58e-05	4.24e-05	6.74e-05
in isopropanol	0.00016	0.000202	0.000283	0.000427	0.000503
in methanol	8.78e-05	0.000162	0.000339	0.000516	0.000794
in n-butanol	0.000141	0.000211	0.000253	0.000353	0.000479
in water	2.36e-06	4.1e-06	6.91e-06	9.39e-06	1.58e-05
